In patent US8138168B1 (Takeda Pharmaceutical Company Limited, priority 2007, dated 2012):
Like-named read-outs stand apart in the source and are kept apart here.

Target: T1, Recombinant human renin (Homo sapiens, UniProt P00797)
T1 construct: isolate the active form (residues 67-406); made in house; host or cells: FreeStyle 293-F cells (transient expression of pcDNA3.1(+)/hREN)
T1 sequence (P00797 67-406): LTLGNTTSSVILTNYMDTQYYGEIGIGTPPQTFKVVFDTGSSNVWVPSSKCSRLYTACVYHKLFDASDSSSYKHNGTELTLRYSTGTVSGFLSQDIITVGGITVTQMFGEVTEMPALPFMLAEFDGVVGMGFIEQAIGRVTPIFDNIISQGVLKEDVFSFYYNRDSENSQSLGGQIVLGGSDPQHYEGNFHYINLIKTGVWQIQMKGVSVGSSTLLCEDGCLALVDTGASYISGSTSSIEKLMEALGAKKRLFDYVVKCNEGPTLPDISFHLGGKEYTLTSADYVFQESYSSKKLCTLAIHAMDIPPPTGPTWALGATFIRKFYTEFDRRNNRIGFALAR
Assay: In vitro enzymatic activity assay of renin inhibitors (fluorogenic peptide substrate)
Assay type: biochemical
Procedure, shortened: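 Enzyme: recombinant human renin, 3 nM final, 10 min compound pre-incubation at 37 °C; buffer 50 mM Hepes pH 7.4 with 0.1 mg/mL BSA or extra 2% BSA; 5% DMSO.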

[1] = read-out: IC50 of Exemplified Compounds Against Renin

SMILES | IC50 [1] [nM] | IC50 [nM]
COCCCn1c([C@@H]2CCCN(C(=O)C[C@H](N)Cc3ccc(-c4ccc5c(c4)OCC(=O)N5)cc3)C2)nc2c(C)cccc21 [Compound 497, 7-(4-((R)-2-amino-4-((R)-3-(1-(3-rnethoxypropyl)-4-methyl-1H-benzo[d]imidazol-2-yl)piperidin-1-yl)-4-oxobutyl)phenyl)-2H-benzo[b][1,4]oxazin-3(4H)-one] | < 100 | –
COCCCn1c([C@@H]2CCCN(C(=O)[C@@H]3CN(S(=O)(=O)c4cccc(F)c4)C[C@H]3N)C2)nc2ccccc21 [Compound 428, ((3R,4S)-4-amino-1-(3-fluorophenylsulfonyl)pyrrolidin-3-yl)((R)-3-(1-(3-methoxypropyl)-1H-benzo[d]imidazol-2-yl)piperidin-1-yl)methanone] | 100 to 1000 | –
N[C@@H](CCl)C(=O)N1CCCC(c2nc3ccccc3[nH]2)C1 (stereo partly drawn) [Compound 60, (2R)-1-(3-(1H-benzo[d]imidazol-2-yl)piperidin-1-yl)-2-amino-3-chloropropan-1-one] | > 1000 | –
COCCCn1c([C@@H]2CCCN(C(=O)C[C@H](N)Cc3ccc(-c4ccc(N)nc4)cc3)C2)nc2c(F)cccc21 [Compound 452, (R)-3-amino-4-(4-(6-aminopyridin-3-yl)phenyl)-1-((R)-3-(4-fluoro-1-(3-methoxypropyl)-1H-benzo[d]imidazol-2-yl)piperidin-1-yl)butan-1-one] | < 100 | –
CC(=O)NCCn1c([C@@H]2CCCN(C(=O)C[C@H](N)Cc3ccc(-c4cnc(N)nc4)cc3)C2)nc2c(C)cccc21 [Compound 472, N-(2-(2-((R)-1-((R)-3-amino-4-(4-(2-aminopyrimidin-5-yl)phenyl)butanoyl)piperidin-3-yl)-4-methyl-1H-benzo[d]imidazol-1-yl)ethyl)acetamide] | 100 to 1000 | –
N[C@@H](CC(=O)N1CCCC(c2nc3ccccc3[nH]2)C1)Cc1ccccc1Cl (stereo partly drawn) [Compound 27, (3R)-1-(3-(1H-benzo[d]imidazol-2-yl)piperidin-1-yl)-3-amino-4-(2-chlorophenyl)butan-1-one] | > 1000 | –
CCOC(=O)CCNC(=O)N1CCCC(c2nc3ccccc3[nH]2)C1 (centres unmarked) [Compound 14, ethyl 3-(3-(1H-benzo[d]imidazol-2-yl)piperidine-1-carboxamido)propanoate] | > 1000 | –
CC(=O)NCCn1c([C@@H]2CCCN(C(=O)C[C@H](N)Cc3ccc(-c4cnc(N)nc4)cc3)C2)nc2c(Cl)cccc21 [Compound 470, N-(2-(2-((R)-1-((R)-3-amino-4-(4-(2-aminopyrimidin-5-yl)phenyl)butanoyl)piperidin-3-yl)-4-chloro-1H-benzo[d]imidazol-1-yl)ethyl)acetamide] | 100 to 1000 | –
COCCCn1c([C@@H]2CCCN(C(=O)C[C@H](N)Cc3ccc(-c4ccc(OC)cc4)cc3)C2)nc2c(F)cccc21 [Compound 492, (R)-3-amino-1-((R)-3-(4-fluoro-1-(3-methoxypropyl)-1H-benzo[d]imidazol-2-yl)piperidin-1-yl)-4-(4′-methoxybiphenyl-4-yl)butan-1-one] | < 100 | –
NC(=O)CCn1c([C@@H]2CCCN(C(=O)C[C@H](N)Cc3ccc(-c4ccc5c(c4)OC(F)(F)O5)cc3)C2)nc2ccccc21 [Compound 483, 3-(2-((R)-1-((R)-3-amino-4-(4-(2,2-difluorobenzo[d][1,3]dioxol-5-yl)phenyl)butanoyl)piperidin-3-yl)-1H-benzo[d]imidazol-1-yl)propanamide] | 100 to 1000 | –
O=C(NCc1ccccc1)N1CCCC(c2nc3ccccc3[nH]2)C1 (centres unmarked) [Compound 3] | > 1000 | –
CC(=O)NCCn1c([C@@H]2CCCN(C(=O)C[C@H](N)Cc3ccc(-c4ccc5oc(=O)[nH]c5c4)cc3)C2)nc2ccccc21 [Compound 467, N-(2-(2-((R)-1-((R)-3-amino-4-(4-(2-oxo-2,3-dihydrobenzo[d]oxazol-5-yl)phenyl)butanoyl)piperidin-3-yl)-1H-benzo[d]imidazol-1-yl)ethyl)acetamide] | 100 to 1000 | –
COCCCn1c([C@@H]2CCCN(C(=O)[C@@H]3CN(S(=O)(=O)c4ccc5ccccc5c4)C[C@H]3N)C2)nc2ccccc21 [Compound 341, ((3R,4S)-4-amino-1-(naphthalen-2-ylsulfonyl)pyrrolidin-3-yl)((R)-3-(1-(3-methoxypropyl)-1H-benzo[d]imidazol-2-yl)piperidin-1-yl)methanone] | 100 to 1000 | –
COCCCn1c([C@@H]2CCCN(C(=O)C[C@H](N)Cc3ccc(-c4ccc5[nH]nc(N)c5c4)cc3)C2)nc2c(C)cccc21 [Compound 500, (R)-3-amino-4-(4-(3-amino-1H-indazol-5-yl)phenyl)-1-((R)-3-(1-(3-methoxypropyl)-4-methyl-1H-benzo[d]imidazol-2-yl)piperidin-1-yl)butan-1-one] | < 100 | –
O=C(Nc1ccc2c(c1)OCO2)N1CCCC(c2nc3ccccc3[nH]2)C1 (centres unmarked) [Compound 11, N-(benzo[d][1,3]dioxol-5-yl)-3-(1H-benzo[d]imidazol-2-yl)piperidine-1-carboxamide] | > 1000 | –

The next lines start with the values.

IC50 [1] [nM] | IC50 [nM] | SMILES
< 100 | – | COCCCn1c([C@@H]2CCCN(C(=O)C[C@H](N)Cc3ccc(-c4ccc(C(=O)NC5CC5)cc4)cc3)C2)nc2ccccc21 [Compound 134, 4′-((R)-2-amino-4-((R)-3-(1-(3-methoxypropyl)-1H-benzo[d]imidazol-2-yl)piperidin-1-yl)-4-oxobutyl)-N-cyclopropylbiphenyl-4-carboxamide]
> 1000 | – | COCCCn1c([C@@H]2CCCN(C(=O)C[C@H](N)COCc3ccccc3)C2)nc2ccccc21 [Compound 88, (S)-3-amino-4-(benzyloxy)-1-((R)-3-(1-(3-methoxypropyl)-1H-benzo[d]imidazol-2-yl)piperidin-1-yl)butan-1-one]
> 1000 | – | COCCCn1c([C@@H]2CCCN(C(=O)[C@@H]3CN(C(=O)c4cccc(OC)c4)C[C@H]3N)C2)nc2ccccc21 [Compound 421, ((3R,4S)-4-amino-1-(3-methoxybenzoyl)pyrrolidin-3-yl)((R)-3-(1-(3-methoxypropyl)-1H-benzo[d]imidazol-2-yl)piperidin-1-yl)methanone]
> 1000 | – | COCCCn1c([C@@H]2CCCN(C(=O)C[C@@H](N)Cc3ccc(Cl)cc3)C2)nc2ccccc21 [Compound 69, (S)-3-amino-4-(4-chlorophenyl)-1-((R)-3-(1-(3-methoxypropyl)-1H-benzo[d]imidazol-2-yl)piperidin-1-yl)butan-1-one]
100 to 1000 | – | COCCCn1c([C@@H]2CCCN(C(=O)C[C@H](N)CNC(=O)c3ccc(-c4cccc(Cl)c4)o3)C2)nc2ccccc21 [Compound 296, N-((S)-2-amino-4-((R)-3-(1-(3-methoxypropyl)-1H-benzo[d]imidazol-2-yl)piperidin-1-yl)-4-oxobutyl)-5-(3-chlorophenyl)furan-2-carboxamide]
< 100 | – | COCCCn1c([C@@H]2CCCN(C(=O)C[C@H](N)Cc3ccc4ccccc4c3)C2)nc2ccccc21 [Compound 74, (R)-3-amino-1((R)-3-(1-(3-methoxypropyl)-1H-benzo[d]imidazol-2-yl)piperidin-1-yl)-4-(naphthalen-2-yl)butan-1-one]
100 to 1000 | – | COCCCn1c([C@@H]2CCCN(C(=O)C[C@H](N)Cc3ccc4ccccc4c3)C2)nc2ccc(OC)nc21 [Compound 503, (3R)-3-amino-1-(3-(5-methoxy-3-(3-methoxypropyl)-3H-imidazo[4,5-b]pyridin-2-yl)piperidin-1-yl)-4-(naphthalen-2-yl)butan-1-one]
> 1000 | – | COCCCn1c([C@@H]2CCCN(C(=O)[C@@H]3CN(C(=O)Nc4ccccc4Cl)C[C@H]3N)C2)nc2ccccc21 [Compound 389, (3S,4R)-3-amino-N-(2-chlorophenyl)-4-((R)-3-(1-(3-methoxypropyl)-1H-benzo[d]imidazol-2-yl)piperidine-1-carbonyl)pyrrolidine-1-carboxamide]
– | < 100 | COCCCn1c([C@@H]2CCCN(C(=O)C[C@H](N)CNC(=O)Nc3ccccc3Cl)C2)nc2ccccc21 [Compound 257, 1-((S)-2-amino-4-((R)-3-(1-(3-methoxypropyl)-1H-benzo[d]imidazol-2-yl)piperidin-1-yl)-4-oxobutyl)-3-(2-chlorophenyl)urea]
< 100 | – | COCCCn1c([C@@H]2CCCN(C(=O)C[C@H](N)CNC(=O)Nc3ccc(Cl)c(Cl)c3)C2)nc2ccccc21 [Compound 255, 1-((S)-2-amino-4-((R)-3-(1-(3-methoxypropyl)-1H-benzo[d]imidazol-2-yl)piperidin-1-yl)-4-oxobutyl)-3-(3,4-dichlorophenyl)urea]
100 to 1000 | – | COCCCn1c([C@@H]2CCCN(C(=O)C[C@H](N)CNC(=O)c3ccc(Cl)cc3)C2)nc2ccccc21 [Compound 309, N-((S)-2-amino-4-((R)-3-(1-(3-methoxypropyl)-1H-benzo[d]imidazol-2-yl)piperidin-1-yl)-4-oxobutyl)-4-chlorobenzamide]
< 100 | – | COCCCn1c([C@@H]2CCCN(C(=O)C[C@H](N)Cc3ccc(-c4ccccc4OC)cc3)C2)nc2ccccc21 [Compound 159]
100 to 1000 | – | COCCCn1c([C@@H]2CCCN(C(=O)C[C@H](N)CNS(=O)(=O)c3ccccc3)C2)nc2ccccc21 [Compound 316, N-((S)-2-amino-4-((R)-3-(1-(3-methoxypropyl)-1H-benzo[d]imidazol-2-yl)piperidin-1-yl)-4-oxobutyl)benzenesulfonamide]
100 to 1000 | – | COCCCn1c([C@@H]2CCCN(C(=O)C[C@H](N)CNC(=O)Nc3ccccc3Oc3ccccc3)C2)nc2ccccc21 [Compound 272, 1-((S)-2-amino-4-((R)-3-(1-(3-methoxypropyl)-1H-benzo[d]imidazol-2-yl)piperidin-1-yl)-4-oxobutyl)-3-(2-phenoxyphenyl)urea]
